Measured values reported in ChEMBL document CHEMBL5537162, “Development of Antibacterial Peptides with Membrane Disruption and Folate Pathway Inhibitory Activities against Methicillin-Resistant Staphylococcus aureus” (J Med Chem, 2024).
Converted amounts (≈) assume the structure as drawn. The source made the active and inactive calls. No cut-off for these calls is given here.

Key:
[1] = tested on: Staphylococcus aureus; experiment: Antibacterial activity against Methicillin-resistant Staphylococcus aureus infected in ICR mouse skin infection model assessed as reduction in skin abscess volume; type: functional, organism-based
[2] = tested on: Staphylococcus aureus; experiment: Antibacterial activity against methicillin-resistant Staphylococcus aureus 19167 assessed as bacterial growth inhibition incubated for 24 hrs by CLSI based micro-broth dilution assay; type: functional
[3] = tested on: Staphylococcus aureus; experiment: Antibacterial activity against methicillin-resistant Staphylococcus aureus 19423 assessed as bacterial growth inhibition incubated for 24 hrs by CLSI based micro-broth dilution assay; type: functional
[4] = tested on: Staphylococcus aureus; experiment: Antibacterial activity against methicillin-resistant Staphylococcus aureus 18475 assessed as bacterial growth inhibition incubated for 24 hrs by CLSI based micro-broth dilution assay; type: functional
[5] = tested on: Staphylococcus aureus; experiment: Antibacterial activity against methicillin-resistant Staphylococcus aureus 18466 assessed as bacterial growth inhibition incubated for 24 hrs by CLSI based micro-broth dilution assay; type: functional
[6] = tested on: Staphylococcus aureus; experiment: Antibacterial activity against methicillin-resistant Staphylococcus aureus 19498 assessed as bacterial growth inhibition incubated for 24 hrs by CLSI based micro-broth dilution assay; type: functional
[7] = tested on: Staphylococcus aureus; experiment: Antibacterial activity against methicillin-resistant Staphylococcus aureus 18878 assessed as bacterial growth inhibition incubated for 24 hrs by CLSI based micro-broth dilution assay; type: functional
[8] = tested on: Staphylococcus aureus; experiment: Antibacterial activity against methicillin-resistant Staphylococcus aureus 18908 assessed as bacterial growth inhibition incubated for 24 hrs by CLSI based micro-broth dilution assay; type: functional
[9] = tested on: Staphylococcus aureus; experiment: Antibacterial activity against methicillin-resistant Staphylococcus aureus 19047 assessed as bacterial growth inhibition incubated for 24 hrs by CLSI based micro-broth dilution assay; type: functional
[10] = tested on: Staphylococcus aureus; experiment: Antibacterial activity against methicillin-resistant Staphylococcus aureus 18567 assessed as bacterial growth inhibition incubated for 24 hrs by CLSI based micro-broth dilution assay; type: functional
[11] = tested on: Staphylococcus aureus; experiment: Antibacterial activity against methicillin-resistant Staphylococcus aureus 18858 assessed as bacterial growth inhibition incubated for 24 hrs by CLSI based micro-broth dilution assay; type: functional
[12] = tested on: Staphylococcus aureus; experiment: Antibacterial activity against Methicillin-resistant Staphylococcus aureus infected in ICR mouse skin infection model assessed as reduction in bacterial content at 5 mg/kg, sc measured upto 10 days; type: functional, organism-based; conditions: time <= 10.0 day
[13] = Antiproliferative activity against HEK293T cells assessed as reduction in cell viability measured for 48 hrs by MTT assay; type: toxicity, cell-based, HEK-293T; conditions: human
[14] = tested on: Staphylococcus aureus; experiment: Antibacterial activity against Methicillin-resistant Staphylococcus aureus infected in ICR mouse skin infection model assessed as reduction in inflammatory infiltration at 5 mg/kg, sc by H and E staining based microscopic analysis; type: functional, organism-based
[15] = Hemolytic activity in mouse RBC assessed as hemolysis at 320 uM incubated for 1 hrs by spectrophotometric analysis relative to control; type: toxicity, cell-based, Erythrocyte; conditions: mouse red blood cells (erythrocytes), read-out: %max
[16] = Selectivity index, ratio of IC50 for antiproliferative activity against HEK293T cells assessed as reduction in cell viability to MIC for antibacterial activity against methicillin-resistant Staphylococcus aureus assessed as bacterial growth inhibition; type: toxicity, cell-based; conditions: human, read-out: Selectivity Index
[17] = tested on: Staphylococcus aureus; experiment: Antibacterial activity against methicillin-resistant Staphylococcus aureus assessed as bacterial growth inhibition incubated for 24 hrs by CLSI based micro-broth dilution assay; type: functional
[18] = (§1) Hemolytic activity in mouse RBC assessed as hemolysis incubated for 1 hrs by spectrophotometric analysis; type: toxicity, cell-based, Erythrocyte; conditions: mouse red blood cells (erythrocytes)
[19] = tested on: Erythrocyte; experiment: as §1; type: toxicity, cell-based; conditions: erythrocyte, 1 h
[20] = tested on: HEK-293T; experiment: Antiproliferative activity against HEK293T cells assessed as reduction in cell viability at 2.5 to 320 uM measured for 48 hrs by MTT assay relative to control; type: toxicity, cell-based; conditions: human, dose 2.5-320 µM

Row | Molecule | Activity [1] | MIC [2] [µM] | MIC [3] [µM] | MIC [4] [µM] | MIC [5] [µM] | MIC [6] [µM] | MIC [7] [µM] | MIC [8] [µM] | MIC [9] [µM] | MIC [10] [µM] | MIC [11] [µM] | Activity [12] | IC50 at 48 h [13] [µM] | Activity [14] | hemolysis at 1 h, 320 µM [15] [%] | selectivity ratio [16] | MIC [17] [µM] | HC50 at 1 h [18] [µM] | HC10 [19] [µM] | Activity [20] [%]
1 | COc1cccc(OC)c1C(=O)N[C@@H]1C(=O)N2[C@@H]1SC(C)(C)[C@@H]2C(=O)O [METHICILLIN] | Active | > 480 | > 480 | > 480 | > 480 | > 480 | > 480 | > 480 | > 480 | > 480 | > 480 |  |  |  |  |  |  |  |  | 
2 | Cc1onc(-c2ccccc2)c1C(=O)N[C@@H]1C(=O)N2[C@@H]1SC(C)(C)[C@@H]2C(=O)O [OXACILLIN] |  | > 480 | > 480 | > 480 | > 480 | > 480 | > 480 | > 480 | > 480 | > 480 | > 480 |  |  |  |  |  |  |  |  | 
3 | CN[C@H](CC(C)C)C(=O)N[C@H]1C(=O)N[C@@H](CC(N)=O)C(=O)N[C@H]2C(=O)N[C@H]3C(=O)N[C@H](C(=O)N[C@H](C(=O)O)c4cc(O)cc(O)c4-c4cc3ccc4O)[C@H](O)c3ccc(c(Cl)c3)Oc3cc2cc(c3O[C@@H]2O[C@H](CO)[C@@H](O)[C@H](O)[C@H]2O[C@H]2C[C@](C)(N)[C@H](O)[C@H](C)O2)Oc2ccc(cc2Cl)[C@H]1O [VANCOMYCIN] |  | 1 (≈ 1.45 µg/mL) | 1 (≈ 1.45 µg/mL) | 1 (≈ 1.45 µg/mL) | 1 (≈ 1.45 µg/mL) | 1 (≈ 1.45 µg/mL) | 1 (≈ 1.45 µg/mL) | 1 (≈ 1.45 µg/mL) | 1 (≈ 1.45 µg/mL) | 1 (≈ 1.45 µg/mL) | 1 (≈ 1.45 µg/mL) | Active | > 320 | Active | 6.24 | 320 | 1 (≈ 1.45 µg/mL) | > 320 | > 320 | 
4 | H-KARVAVKVIRFLYKAW-NH2 |  |  |  |  |  |  |  |  |  |  |  |  | > 320 |  | 6.36 | 26.7 | 12 | > 320 | > 320 | 
5 | H-KARVSVKVTASLSKAW-NH2 |  |  |  |  |  |  |  |  |  |  |  |  | > 320 |  | 7.57 | 6.67 | > 48 | > 320 | > 320 | 
6 | H-KASVSVKVTASLSKAW-NH2 |  |  |  |  |  |  |  |  |  |  |  |  | > 320 |  | 7.51 | 6.67 | > 48 | > 320 | > 320 | 
7 | H-KASVSVKVTASLSKAWTNSQ-NH2 |  |  |  |  |  |  |  |  |  |  |  |  | > 320 |  | 6.24 | 6.67 | > 48 | > 320 | > 320 | 
8 | H-KGVIFAKASVSVKVTASLSKAWTNSQ-NH2 |  |  |  |  |  |  |  |  |  |  |  |  | > 320 |  | 5.92 | 6.67 | > 48 | > 320 | > 320 | 
9 | H-LFRVVRRVVRFIRRAA-NH2 |  |  |  |  |  |  |  |  |  |  |  |  | > 320 |  | 7.53 | 26.7 | 12 | > 320 | > 320 | 
10 | H-LRPLARRPIRRIRRAW-NH2 |  |  |  |  |  |  |  |  |  |  |  |  | > 320 |  | 8.74 | 6.67 | > 48 | > 320 | > 320 | 
11 | H-LRRFARRLIRRIRRAW-NH2 |  |  |  |  |  |  |  |  |  |  |  |  | > 320 |  | 7.16 | 26.7 | 12 | > 320 | > 320 | 
12 | H-RARVAVRVIRFLYRAW-NH2 |  |  |  |  |  |  |  |  |  |  |  |  | > 320 |  | 9.34 | 26.7 | 12 | > 320 | 320 | 
13 | H-RARVRVRVRRFLRRRW-NH2 |  |  |  |  |  |  |  |  |  |  |  |  | > 320 |  | 11.3 | 6.67 | > 48 | > 320 | 320 | 
14 | H-RRFFVRRVFFRRRRFF-OH |  |  |  |  |  |  |  |  |  |  |  |  | > 320 |  | 30.1 | 6.67 | 48 | > 320 | 41.05 | 59.65
15 | H-RRPLARPLIRFIRRPW-NH2 |  |  |  |  |  |  |  |  |  |  |  |  | > 320 |  | 7.57 | 6.67 | > 48 | > 320 | > 320 | 
16 | H-RRRVARRVFWFVRRAV-NH2 |  |  |  |  |  |  |  |  |  |  |  |  | > 320 |  | 8.25 | 13.3 | 24 | > 320 | > 320 | 
17 | H-RRRVARRVIRFIRRAW-NH2 |  |  |  |  |  |  |  |  |  |  |  |  | > 320 |  | 10.2 | 26.7 | 12 | > 320 | 320 | 
18 | H-RRRWARRIIWIIRRAW-NH2 |  |  |  |  |  |  |  |  |  |  |  |  | > 320 |  | 8.66 | 13.3 | 24 | > 320 | > 320 | 
19 | H-RRWIARRAIWRRRRWW-NH2 |  |  |  |  |  |  |  |  |  |  |  |  | > 320 |  | 17.2 | 6.67 | 48 | > 320 | 92.35 | 58.94
20 | H-RRWWWRRWWWRRRRWW-NH2 |  |  |  |  |  |  |  |  |  |  |  |  | > 320 |  | 51.3 | 6.67 | 48 | > 320 | 25.91 | 55.74
21 | H-WARIARRAIRAWRRWW-NH2 |  |  |  |  |  |  |  |  |  |  |  |  | > 320 |  | 20.1 | 26.7 | 12 | > 320 | 75.19 | 62.65
22 | H-WRWWRRRRWWRWRRWW-NH2 |  |  |  |  |  |  |  |  |  |  |  |  | > 320 |  | 40.3 | 6.67 | 48 | > 320 | 33.2 | 59.04
